# pKi: −log10 of the molar value.
# What was measured:
# [1] = target: T1, Sodium-dependent dopamine transporter (Rattus norvegicus, UniProt P23977); assay: Binding affinity towards dopamine transporter using [3H]- mazindol as radioligand in rat striatal membranes; format: cell membranes, Striatum, Membrane
# [2] = target: T1, Sodium-dependent dopamine transporter; assay: Inhibition of high affinity uptake of [3H]dopamine into striatal nerve endings (synaptosomes); format: subcellular, Brain
# T1 sequence (P23977 whole entry): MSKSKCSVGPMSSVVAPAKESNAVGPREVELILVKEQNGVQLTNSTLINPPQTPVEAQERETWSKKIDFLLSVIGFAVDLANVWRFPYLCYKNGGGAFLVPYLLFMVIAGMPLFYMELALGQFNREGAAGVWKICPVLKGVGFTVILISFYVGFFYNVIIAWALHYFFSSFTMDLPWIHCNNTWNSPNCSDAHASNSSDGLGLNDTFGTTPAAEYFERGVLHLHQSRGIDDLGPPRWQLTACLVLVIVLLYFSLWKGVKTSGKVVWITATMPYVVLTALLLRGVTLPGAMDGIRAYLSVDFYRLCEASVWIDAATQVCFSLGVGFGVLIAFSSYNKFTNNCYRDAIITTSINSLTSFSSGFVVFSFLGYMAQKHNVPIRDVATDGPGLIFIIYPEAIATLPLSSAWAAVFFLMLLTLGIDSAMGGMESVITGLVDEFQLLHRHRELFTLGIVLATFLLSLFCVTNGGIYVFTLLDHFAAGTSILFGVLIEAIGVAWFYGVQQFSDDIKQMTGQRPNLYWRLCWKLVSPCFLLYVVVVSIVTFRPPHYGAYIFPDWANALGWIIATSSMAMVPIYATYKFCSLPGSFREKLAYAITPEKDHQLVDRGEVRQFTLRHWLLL
Compound,pKi [1],pKi [2]
COC(=O)[C@@H]1C2CCC(C[C@H]1OC(=O)c1ccccc1)O2 (some centres not stated),4.47,4.64
COC(=O)[C@H]1C2CCC(C[C@H]1OC(=O)c1ccccc1)O2 (some centres not stated),4.42,4.46
COC(=O)[C@@H]1C2CCC(C[C@@H]1OC(=O)c1ccccc1)O2 (stereo in doubt; (+)),5.51,5.03
COC(=O)[C@H]1C2CCC(C[C@@H]1OC(=O)c1ccccc1)O2 (stereo in doubt; (+)),4.53,4.32
COC(=O)[C@@H]1C2CCC(C[C@@H]1OC(=O)c1ccccc1)O2 (stereo in doubt; (-)),5.38,5.07
COC(=O)[C@H]1C2CCC(C[C@@H]1OC(=O)c1ccccc1)O2 (stereo in doubt; (-)),5.33,5.22

# Source: ChEMBL document CHEMBL1131772, “Synthesis of 8-Oxa analogues of norcocaine endowed with interesting cocaine-like activity” (Bioorg Med Chem Lett, 1999)
